This is an account of results in patent US4721775A, “Effective peptides related to the luteinizing hormone releasing hormone from L-amino acids” (Board of Regents, The University of Texas System, priority 1985, dated 1988).

“And” between values parts separate entries of the source, which are not always exact repeats. Equal values may be shown once. “Also recorded” adds a separate entry of the source. Non-standard residues stand in square brackets, D forms with d. Residues, ends and D or L forms follow the SMILES beside them. pGlu = O=C1CC[C@@H](C(=O)O)N1

Assay [1] has as its system release of FSH. Description: Release of FSH in rats after sc injection. The assay is classed as in vivo. The settings on record: dose and time as stated in the source.
The subject of assay [2] is release of LH. Description: Release of LH in rats after sc injection. The settings on record: for LH % change: 60 min. after sc injection, LHRH = 100. The assay is classed as in vivo. The text has this: (§1) The data on the release of LH and FSH in rats by modifications of LHRH with one structural change are in Table II.
(§2) Exclusive of the salmon-LHRH, only one of the six decapeptides with two structural changes had significant activity.

Assay [3] concerns release of FSH. Description: Release of FSH in rats after sc injection. The assay is classed as in vivo.
Source text: as §1, §2

Assay [4] concerns the target T1, receptor identified with LHRH (Rattus norvegicus, UniProt P30969).
T1 construct: in tissue there is very likely a different receptor; from tissue
T1 sequence (P30969 1-327): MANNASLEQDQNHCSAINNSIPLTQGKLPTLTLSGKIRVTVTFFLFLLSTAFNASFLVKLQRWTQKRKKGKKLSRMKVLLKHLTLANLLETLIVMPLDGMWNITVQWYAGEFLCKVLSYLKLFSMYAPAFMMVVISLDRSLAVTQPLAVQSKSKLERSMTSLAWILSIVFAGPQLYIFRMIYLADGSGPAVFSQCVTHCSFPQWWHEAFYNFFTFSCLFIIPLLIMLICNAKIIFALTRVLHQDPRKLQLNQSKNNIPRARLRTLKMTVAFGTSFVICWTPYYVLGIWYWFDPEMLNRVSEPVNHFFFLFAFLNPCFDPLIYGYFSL
Description: Radio receptor assay (RRA) with 125I-D-Lys6-LHRH as ligand. The assay is classed as binding. The following applies: relative to LHRH. The text has this: Data are included in Table II, III, IV and V from radio receptor assays as described by Heber et al. (Am. J. Physiol. […]: E227-E230 (1978)).
For the radio receptor assay, labelled ^125 I-D-Lys^6 -LHRH, was utilized as the ligand. The results are expressed as the relative inhibitory binder of the analog to LHRH at ID50 values.

Setting [5] is: release 15 min. after sc injection, dosage of peptide 100 ng.
The mark [6] stands for this setting: release 15 min. after sc injection, dosage of peptide 1000 ng.
The mark [7] stands for this setting: release 60 min. after sc injection, dosage of peptide 300 ng.
The mark [8] stands for this setting: release 60 min. after sc injection, dosage of peptide 3000 ng.

Take `NC(=O)CC[C@H](NC(=O)[C@H](Cc1c[nH]c2ccccc12)NC(=O)CNC(=O)[C@H](Cc1c[nH]cn1)NC(=O)[C@H](CO)NC(=O)[C@H](Cc1c[nH]c2ccccc12)NC(=O)[C@H](Cc1c[nH]cn1)NC(=O)[C@@H]1CCC(=O)N1)C(=O)N1CCC[C@H]1C(=O)NCC(N)=O` [[His^5 Trp^7 Gln^8]--LHRH, p-Glu His Trp Ser His Gly Trp Gln Pro Gly-NH2] ([pGlu]HWSHGWQPG-NH2): the “release of FSH compared with LHRH” value in assay [1] is “as much FSH at the higher dosage of 3000 ng as LHRH; also recorded: released equivalent levels of LH and FSH when monitored 15 minutes after injection; also recorded: released as much FSH as LHRH”. The LH % change in assay [2] (300 ng) is on record as 46%; in assay [2] (3000 ng) it was 65%. Further, the LH was found to be 17 ng/mL in assay [2] (setting [5]), 66 ng/mL in assay [2] (setting [6]), 5 ng/mL in assay [2] (setting [7]) and 53 ng/mL in assay [2] (setting [8]). In assay [2] (sc injection, dose and time as stated in the source), the “release of LH compared with LHRH” value was “released less LH; also recorded: released equivalent levels of LH and FSH when monitored 15 minutes after injection; also recorded: as effective at 100 ng as LHRH; also recorded: about two times as effective as [His^5, Trp^7 Leu^8 ]-LHRH”. Further, the FSH % change in assay [3] (60 min. after sc injection, 300 ng, LHRH = 100) was 68% and 67.8%. The FSH was determined as 403 ng/mL in assay [3] (setting [5]), 486 ng/mL in assay [3] (setting [6]), 404 ng/mL in assay [3] (setting [7]) and 1161 ng/mL in assay [3] (setting [8]). Further, the “level at which effectiveness in the radioreceptor assay for LHRH is achieved, times that of LHRH” value in assay [4] was 46 times.
